This passage reports T/C results from PubChem BioAssay AID258 (DTP/NCI, 2004).

The test system of this assay is CD2F1 mice, L1210 leukemia sc, survival T/C. In words: NCI In Vivo Anticancer Drug Screen. Data for tumor model L1210 Leukemia (subcutaneous) in CD2F1 (CDF1) mice. The conditions noted are these: endpoint: median survival time, higher = longer survival. The essentials: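 Compound given to mice bearing transplantable tumor. Survival or tumor size then recorded. Result expressed relative to vehicle-dosed control group as T/C.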

“And” between values parts separate entries of the source, which are not always exact repeats. Equal values may be shown once. Inconclusive results and toxic doses are left out.

Take `O=C(Nc1ccccc1)c1c(O)[nH]c(=S)[nH]c1=O`: the T/C by setting is: (dose: 5.6 mg/kg/injection, schedule: Q03HX008 (ip), vehicle: other) 107 % of control and 96 % of control; (dose: 5.9 mg/kg/injection, schedule: Q04HX006 (iv), vehicle: other) 110 % of control; (dose: 8.4 mg/kg/injection, schedule: Q03HX008 (ip), vehicle: other) 107 % of control; (dose: 8.9 mg/kg/injection, schedule: Q01DX003 (iv), vehicle: other) 105 % of control; (dose: 8.9 mg/kg/injection, schedule: Q04HX006 (iv), vehicle: other) 109 % of control; (dose: 12.6 mg/kg/injection, schedule: Q03HX008 (ip), vehicle: other) 104 % of control and 111 % of control. Besides, the T/C is 101 % of control (dose: 13.4 mg/kg/injection, schedule: Q01DX003 (iv), vehicle: other); 100 % of control and 103 % of control (dose: 13.4 mg/kg/injection, schedule: Q01DX005 (ip), vehicle: other); 113 % of control (dose: 13.4 mg/kg/injection, schedule: Q04HX006 (iv), vehicle: other); 122 % of control (dose: 18.8 mg/kg/injection, schedule: Q03HX008 (ip), vehicle: other); 107 % of control (dose: 20.0 mg/kg/injection, schedule: Q01DX003 (iv), vehicle: other); 106 % of control and 115 % of control (dose: 20.0 mg/kg/injection, schedule: Q01DX005 (ip), vehicle: other). The T/C (dose: 20.0 mg/kg/injection, schedule: Q04HX006 (iv), vehicle: other) is 119 % of control; the T/C (dose: 28.2 mg/kg/injection, schedule: Q03HX008 (ip), vehicle: other) is 157 % of control and 163 % of control; the T/C (dose: 29.8 mg/kg/injection, schedule: Q01DX001 (ip), vehicle: other) is 105 % of control and 107 % of control; the T/C (dose: 30.0 mg/kg/injection, schedule: Q01DX003 (iv), vehicle: other) is 124 % of control; the T/C (dose: 30.0 mg/kg/injection, schedule: Q04HX006 (iv), vehicle: other) was 168 % of control; the T/C (dose: 44.7 mg/kg/injection, schedule: Q01DX001 (ip), vehicle: other) was 117 % of control and 119 % of control. The T/C (dose: 45.0 mg/kg/injection, schedule: Q01DX003 (iv), vehicle: other) was 161 % of control; the T/C (dose: 45.0 mg/kg/injection, schedule: Q01DX005 (ip), vehicle: other) is 173 % of control and 184 % of control.
`O=C(CCBr)N1CCN(C(=O)CCBr)CC1`: the T/C by setting is: (dose: 28.0 mg/kg/injection, schedule: Q01DX Z (sc), vehicle: methylcellulose (MC)) 111 % of control; (dose: 47.0 mg/kg/injection, schedule: Q01DX Z (sc), vehicle: methylcellulose (MC)) 111 % of control; (dose: 78.0 mg/kg/injection, schedule: Q01DX Z (sc), vehicle: methylcellulose (MC)) 122 % of control; (dose: 360.0 mg/kg/injection, schedule: Q01DX Z (sc), vehicle: methylcellulose (MC)) 122 % of control.
Turning to `Nc1ccn([C@@H]2C=C(CO)[C@@H](O)[C@H]2O)c(=O)n1`, the T/C reads like this: (dose: 0.13 mg/kg/injection, schedule: Q03HX024 (ip), vehicle: saline) 116 % of control; (dose: 0.19 mg/kg/injection, schedule: Q03HX024 (ip), vehicle: saline) 112 % of control; (dose: 0.3 mg/kg/injection, schedule: Q06HX018 (ip), vehicle: saline) 108 % of control; (dose: 0.44 mg/kg/injection, schedule: Q01DX009 (ip), vehicle: saline) 100 % of control and 103 % of control; (dose: 0.44 mg/kg/injection, schedule: Q03HX016 (ip), vehicle: saline) 119 % of control; (dose: 0.44 mg/kg/injection, schedule: Q03HX024 (ip), vehicle: saline) 89 % of control. Besides, the T/C is, setting by setting: (dose: 0.45 mg/kg/injection, schedule: Q01DX009 (ip), vehicle: saline) 103 % of control and 113 % of control (2×); (dose: 0.45 mg/kg/injection, schedule: Q01DX009 (sc), vehicle: saline) 99 % of control; (dose: 0.45 mg/kg/injection, schedule: Q03HX008 (ip), vehicle: saline) 118 % of control; (dose: 0.45 mg/kg/injection, schedule: Q06HX018 (ip), vehicle: saline) 163 % of control; (dose: 0.67 mg/kg/injection, schedule: Q03HX008 (ip), vehicle: saline) 119 % of control; (dose: 0.67 mg/kg/injection, schedule: Q06HX018 (ip), vehicle: saline) 214 % of control. Moreover, the T/C runs as follows: (dose: 0.8 mg/kg/injection, schedule: Q01DX009 (ip), vehicle: saline) 157 % of control; (dose: 0.99 mg/kg/injection, schedule: Q03HX008 (ip), vehicle: saline) 120 % of control; (dose: 1.0 mg/kg/injection, schedule: Q01DX005 (iv), vehicle: saline) 151 % of control; (dose: 1.0 mg/kg/injection, schedule: Q01DX009 (sc), vehicle: saline) 180 % of control; (dose: 1.0 mg/kg/injection, schedule: Q03HX016 (ip), vehicle: saline) 161 % of control; (dose: 1.0 mg/kg/injection, schedule: Q06HX018 (ip), vehicle: saline) 108 % of control. For the same molecule, the T/C reads like this: (dose: 1.2 mg/kg/injection, schedule: Q01DX009 (ip), vehicle: saline) 189 % of control; (dose: 1.49 mg/kg/injection, schedule: Q01DX005 (iv), vehicle: saline) 97 % of control; (dose: 1.49 mg/kg/injection, schedule: Q03HX008 (ip), vehicle: saline) 89 % of control; (dose: 1.5 mg/kg/injection, schedule: Q01DX005 (iv), vehicle: saline) 168 % of control; (dose: 1.5 mg/kg/injection, schedule: Q01DX009 (sc), vehicle: saline) 182 % of control; (dose: 2.2 mg/kg/injection, schedule: Q01DX005 (iv), vehicle: saline) 162 % of control. The T/C is 89 % of control (dose: 2.23 mg/kg/injection, schedule: Q01DX005 (iv), vehicle: saline); 97 % of control (dose: 2.25 mg/kg/injection, schedule: Q01DX009 (sc), vehicle: saline); 154 % of control (dose: 3.0 mg/kg/injection, schedule: Q03HX008 (ip), vehicle: saline); 90 % of control (dose: 3.3 mg/kg/injection, schedule: Q01DX005 (iv), vehicle: saline); 113 % of control (dose: 4.5 mg/kg/injection, schedule: Q03HX008 (ip), vehicle: saline); 86 % of control (dose: 4.8 mg/kg/injection, schedule: Q01DX005 (iv), vehicle: saline). Moreover, the T/C is, setting by setting: (dose: 5.0 mg/kg/injection, schedule: Q01DX001 (ip), vehicle: saline) 118 % of control; (dose: 9.0 mg/kg/injection, schedule: Q03HX004 (iv), vehicle: saline) 152 % of control; (dose: 10.7 mg/kg/injection, schedule: Q01DX001 (ip), vehicle: saline) 123 % of control; (dose: 11.2 mg/kg/injection, schedule: Q01DX001 (ip), vehicle: saline) 110 % of control and 123 % of control; (dose: 11.2 mg/kg/injection, schedule: Q01DX001 (iv), vehicle: saline) 119 % of control; (dose: 16.9 mg/kg/injection, schedule: Q01DX001 (iv), vehicle: saline) 100 % of control. Further, the T/C by setting is: (dose: 36.0 mg/kg/injection, schedule: Q01DX001 (ip), vehicle: saline) 154 % of control; (dose: 37.9 mg/kg/injection, schedule: Q01DX001 (iv), vehicle: saline) 90 % of control; (dose: 54.0 mg/kg/injection, schedule: Q01DX001 (ip), vehicle: saline) 164 % of control; (dose: 54.0 mg/kg/injection, schedule: Q01DX001 (iv), vehicle: saline) 158 % of control; (dose: 56.8 mg/kg/injection, schedule: Q01DX001 (iv), vehicle: saline) 88 % of control; (dose: 81.0 mg/kg/injection, schedule: Q01DX001 (ip), vehicle: saline) 106 % of control. Moreover, the T/C (dose: 81.0 mg/kg/injection, schedule: Q01DX001 (iv), vehicle: saline) is 103 % of control; the T/C (dose: 121.0 mg/kg/injection, schedule: Q01DX001 (iv), vehicle: saline) was 91 % of control; the T/C (dose: 88.0 micrograms/kg/injection, schedule: Q03HX024 (ip), vehicle: saline) is 112 % of control; the T/C (dose: 200.0 micrograms/kg/injection, schedule: Q03HX024 (ip), vehicle: saline) was 166 % of control.
